Assay: Safety tolerance assessment, adverse events (Example 1)
Type: in vivo, human
Procedure: 40 asymptomatic healthy patients that are positive for Helicobacter pylori infection were admitted to the trial. The 40 patients were randomly allocated to four groups at a ratio of 1:1:1:1.
Different therapies were administered to the patients of each group according to the schedule below: • Group A: • Compound I capsule 200 mg/time (2 capsules, 100 mg/capsule), twice per day (BID); rabeprazole sodium enteric-coated tablet 20 mg/time (1 tablet, 20 mg/tablet), twice per day (BID) • Group B: • Compound I capsule 400 mg/time (4 capsules, 100 mg/capsule), twice per day (BID); rabeprazole sodium enteric-coated tablet 20 mg/time (1 tablet, 20 mg/tablet), twice per day (BID) • Group C: • Compound I capsule 600 mg/time (6 capsules, 100 mg/capsule), twice per day (BID); rabeprazole sodium enteric-coated tablet 20 mg/time (1 tablet, 20 mg/tablet), twice per day (BID) • Group D: • Compound I capsule 400 mg/time (4 capsules, 100 mg/capsule), twice per day (BID); rabeprazole sodium enteric-coated tablet 20 mg/time (1 tablet, 20 mg/tablet), twice per day (BID); amoxicillin capsule 1 g/time (4 capsules, 0.25 g/capsule), twice per day (BID)
All patients were admitted to the clinical research center 1 day before dosing (D-1 Day), randomly allocated to respective groups and completed examinations for safety and baseline indicators. From day 1 to day 14, respective therapies/drugs were orally administered to the patients within 30 minutes after breakfast and dinner. On day 15, the last dose was administered orally to the patients within 30 minutes after breakfast. During the trial, each patient was dosed for 29 times in total. All patients left the hospital after completing a safety tolerance assessment on day 17 and returned to the clinical research center for urea breath test (UBT) follow-up examination between days 44 and 50 to evaluate the effect of Helicobacter pylori eradication.
The safety tolerance assessment incudes assessment of adverse events (AE), serious adverse events (SAE), drug-related AEs, and AEs leading to withdrawal.
The number and incidence of all adverse events were summarized according to the respective trial group, systemic organ classification and preferred terminology.
By trial group, according to the CTCA 5.0 rating, the list describes the incidence of adverse events in each trial group (occurred in each trial group alone, in 2 groups or 3 groups).
By trial group, the mean, standard deviation, median, minimum and maximum values of vital signs (blood pressure, breathing, pulse and body temperature) and laboratory indicators before and after drug administration were calculated, and when necessary, paired t-test or non-parametric test were used for before-and-after comparison.
SAE and Suspected Unintended Serious Adverse Reactions (SUSAR) were listed separately.

[1] = Group A: Compound I 200 mg BID + rabeprazole sodium 20 mg BID
[2] = Group A: Compound I 200 mg BID + rabeprazole sodium 20 mg BID, N = 10
[3] = Group B: Compound I 400 mg BID + rabeprazole sodium 20 mg BID
[4] = Group B: Compound I 400 mg BID + rabeprazole sodium 20 mg BID, N = 10
[5] = Group C: Compound I 600 mg BID + rabeprazole sodium 20 mg BID
[6] = Group C: Compound I 600 mg BID + rabeprazole sodium 20 mg BID, N = 10
[7] = Group D: Compound I 400 mg BID + rabeprazole sodium 20 mg BID + amoxicillin 1 g BID
[8] = Group D: Compound I 400 mg BID + rabeprazole sodium 20 mg BID + amoxicillin 1 g BID, N = 10

CO[C@H]1/C=C/O[C@@]2(C)Oc3c(C)c(O)c4c(c3C2=O)C2=NC3(CCN(CCn5c([N+](=O)[O-])cnc5C)CC3)NC2=C(NC(=O)/C(C)=C\C=C\[C@H](C)[C@H](O)[C@@H](C)[C@@H](O)[C@@H](C)[C@H](OC(C)=O)[C@@H]1C)C4=O [Compound I, 4-Deoxy-3,4-[2-spiro-[1-[2-(2-methyl-5-nitro-imidazol-1-yl)ethyl]-piperidin-4-yl]]-(1H)-imidazo-(2,5-dihydro)rifamycin]
Elevated serum creatinine, number of cases [1]: 4 cases
Incidence of elevated serum creatinine (common AE associated with the combination therapy) [1]: 30%
Incidence of hyperglycemia (common AE associated with the combination therapy) [1]: 20%
Drug related TEAE (patients/episodes) [2]: (6/18)
Incidence of AEs: Drug related TEAE [2]: 60%
Incidence of AEs: TEAE [2]: 60%
TEAE (patients/episodes) [2]: (6/18)
Elevated serum creatinine, number of cases [3]: 1 case
Grade 3 AEs [3]: 3
Incidence of elevated hemobilirubin (common AE associated with the combination therapy) [3]: Group B: elevated hemobilirubin (20%), hyperglycemia (20%);
Incidence of hyperglycemia (common AE associated with the combination therapy) [3]: Group B: elevated hemobilirubin (20%), hyperglycemia (20%);
Drug related TEAE (patients/episodes) [4]: (7/9)
Incidence of AEs: Drug related TEAE [4]: 70%
Incidence of AEs: TEAE [4]: 80%
TEAE (patients/episodes) [4]: (8/12)
Common adverse events with incidence of ≥15% associated with the combination therapy [5]: Group C: absent;
Elevated serum creatinine, number of cases [5]: 2 cases
Drug related TEAE (patients/episodes) [6]: (5/8)
Incidence of AEs: Drug related TEAE [6]: 50%
Incidence of AEs: TEAE [6]: 50%
TEAE (patients/episodes) [6]: (5/8)
Elevated serum creatinine, number of cases [7]: 2 cases
Incidence of elevated alanine aminotransferase (common AE associated with the combination therapy) [7]: Group D: elevated alanine aminotransferase (20%), elevated aspartic acid aminotransferase (20%), hypertriglyceridemia (20%), hyperuricemia (20%), rash (20%), papules (20%).
Incidence of elevated aspartic acid aminotransferase (common AE associated with the combination therapy) [7]: Group D: elevated alanine aminotransferase (20%), elevated aspartic acid aminotransferase (20%), hypertriglyceridemia (20%), hyperuricemia (20%), rash (20%), papules (20%).
Incidence of hypertriglyceridemia (common AE associated with the combination therapy) [7]: Group D: elevated alanine aminotransferase (20%), elevated aspartic acid aminotransferase (20%), hypertriglyceridemia (20%), hyperuricemia (20%), rash (20%), papules (20%).
Incidence of hyperuricemia (common AE associated with the combination therapy) [7]: Group D: elevated alanine aminotransferase (20%), elevated aspartic acid aminotransferase (20%), hypertriglyceridemia (20%), hyperuricemia (20%), rash (20%), papules (20%).
Incidence of papules (common AE associated with the combination therapy) [7]: Group D: elevated alanine aminotransferase (20%), elevated aspartic acid aminotransferase (20%), hypertriglyceridemia (20%), hyperuricemia (20%), rash (20%), papules (20%).
Incidence of rash (common AE associated with the combination therapy) [7]: Group D: elevated alanine aminotransferase (20%), elevated aspartic acid aminotransferase (20%), hypertriglyceridemia (20%), hyperuricemia (20%), rash (20%), papules (20%).
Drug related TEAE (patients/episodes) [8]: (7/17)
Incidence of AEs: Drug related TEAE [8]: 70%
Incidence of AEs: TEAE [8]: 80%
TEAE (patients/episodes) [8]: (8/19)
Decrease in renal creatinine clearance, incidence rate (Total, Groups A-D): 7.5%
Drug-related AEs of grade 1 (Total, Groups A-D): 45
Drug-related AEs of grade 2 (Total, Groups A-D): 6 cases
Drug-related skin abnormalities (rash, papules, itching), number of cases (Total, Groups A-D): 8 cases
Elevated serum creatinine, incidence rate (Total, Groups A-D): 15%
Elevated serum creatinine, number of cases (Total, Groups A-D): 9 cases
Grade 1 adverse events (CTC AE 5.0), number of cases (Total, Groups A-D): 46 cases
Grade 2 adverse events (CTC AE 5.0), number of cases (Total, Groups A-D): 10 cases
Hyperglycemia (unexpected adverse reaction), incidence (Total, Groups A-D): 12.5%
Skin abnormalities, number of cases (Total, Groups A-D): 10 cases
Unexpected adverse reactions, incidence (Total, Groups A-D): 15.0%
Drug related TEAE (patients/episodes) (Total, Groups A-D, N = 40): (25/52)
Incidence of AEs: Drug related TEAE (Total, Groups A-D, N = 40): 62.5%
Incidence of AEs: TEAE (Total, Groups A-D, N = 40): 67.5%
TEAE (patients/episodes) (Total, Groups A-D, N = 40): (27/57)
Hyperglycemia (unexpected adverse reaction), number of cases (Total, Groups A-D, grade 1): 6 cases
Unexpected adverse reactions, number of cases (Total, Groups A-D, grade 1): 7 cases
Elevated transaminases, number of cases (Total, Groups A-D, severity all grade 1): 7 cases
Safety and tolerability of the combination therapy (administered continuously for 14 days in asymptomatic healthy people with positive Helicobacter pylori infection): good safety and tolerability characteristics
Serious adverse events (SAE) (entire trial, Groups A-D): no SAE

From patent US12005050B2, “Methods for preventing or treating H. pylori infection” (TENNOR THERAPEUTICS (SUZHOU) LIMITED, priority 2022, dated 2024)
